Reference: patent US11572590B2, “Methods for evaluating tumor cell spheroids using 3D microfluidic cell culture device” (Dana-Farber Cancer Institute, Inc., priority 2017, dated 2023)
Read-outs that look alike come from different tables or passages of the source.

Assays:
Assay in all cases: SelectScreen Kinase Profiling, single point inhibition and IC50 for off-target kinases
Assay type in all cases: biochemical
[1] = target: off-target kinases (Homo sapiens, UniProt P16234); details: PDGFRA (PDGFR alpha), ATP Km app, ZLYTE
[2] = target: off-target kinases (Homo sapiens, UniProt O60674, V617F); details: JAK2 JH1 JH2 V617F, ATP Km app, ZLYTE
[3] = target: off-target kinases (Homo sapiens, UniProt P19784); details: CSNK2A2 (CK2 alpha 2), ZLYTE, ATP Km app
[4] = target: T1, off-target kinases (Homo sapiens, UniProt Q13188); details: STK3 (MST2), ZLYTE, ATP Km app
T1 sequence (Q13188 1-491): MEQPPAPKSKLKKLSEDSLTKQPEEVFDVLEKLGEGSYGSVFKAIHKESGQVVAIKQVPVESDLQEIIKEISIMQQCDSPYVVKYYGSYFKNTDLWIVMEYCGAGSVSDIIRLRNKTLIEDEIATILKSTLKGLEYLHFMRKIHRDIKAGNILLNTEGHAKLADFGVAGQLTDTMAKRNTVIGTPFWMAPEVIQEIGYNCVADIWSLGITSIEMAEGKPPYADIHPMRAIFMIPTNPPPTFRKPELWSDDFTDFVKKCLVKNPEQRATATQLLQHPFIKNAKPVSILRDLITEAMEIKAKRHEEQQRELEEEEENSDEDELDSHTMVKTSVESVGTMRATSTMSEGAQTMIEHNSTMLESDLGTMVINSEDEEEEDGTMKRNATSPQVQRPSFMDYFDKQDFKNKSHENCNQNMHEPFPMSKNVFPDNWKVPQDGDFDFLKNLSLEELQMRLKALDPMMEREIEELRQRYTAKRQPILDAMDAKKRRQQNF

[5] = target: off-target kinases (Homo sapiens, UniProt Q86UE8); details: TLK2, LanthaScreen Binding
[6] = target: off-target kinases (Homo sapiens, UniProt Q5VT25); details: CDC42 BPA (MRCKA), ZLYTE, ATP Km app
[7] = target: off-target kinases (Homo sapiens, UniProt P17612); details: PRKACA (PKA), ZLYTE, ATP Km app
[8] = target: off-target kinases (Homo sapiens, UniProt Q9UM73, C1156Y); details: ALK C1156Y (mutant), LanthaScreen Binding
Chain of off-target kinases (Homo sapiens, UniProt Q9UM73, C1156Y) (Q9UM73 19-1620 C1156Y): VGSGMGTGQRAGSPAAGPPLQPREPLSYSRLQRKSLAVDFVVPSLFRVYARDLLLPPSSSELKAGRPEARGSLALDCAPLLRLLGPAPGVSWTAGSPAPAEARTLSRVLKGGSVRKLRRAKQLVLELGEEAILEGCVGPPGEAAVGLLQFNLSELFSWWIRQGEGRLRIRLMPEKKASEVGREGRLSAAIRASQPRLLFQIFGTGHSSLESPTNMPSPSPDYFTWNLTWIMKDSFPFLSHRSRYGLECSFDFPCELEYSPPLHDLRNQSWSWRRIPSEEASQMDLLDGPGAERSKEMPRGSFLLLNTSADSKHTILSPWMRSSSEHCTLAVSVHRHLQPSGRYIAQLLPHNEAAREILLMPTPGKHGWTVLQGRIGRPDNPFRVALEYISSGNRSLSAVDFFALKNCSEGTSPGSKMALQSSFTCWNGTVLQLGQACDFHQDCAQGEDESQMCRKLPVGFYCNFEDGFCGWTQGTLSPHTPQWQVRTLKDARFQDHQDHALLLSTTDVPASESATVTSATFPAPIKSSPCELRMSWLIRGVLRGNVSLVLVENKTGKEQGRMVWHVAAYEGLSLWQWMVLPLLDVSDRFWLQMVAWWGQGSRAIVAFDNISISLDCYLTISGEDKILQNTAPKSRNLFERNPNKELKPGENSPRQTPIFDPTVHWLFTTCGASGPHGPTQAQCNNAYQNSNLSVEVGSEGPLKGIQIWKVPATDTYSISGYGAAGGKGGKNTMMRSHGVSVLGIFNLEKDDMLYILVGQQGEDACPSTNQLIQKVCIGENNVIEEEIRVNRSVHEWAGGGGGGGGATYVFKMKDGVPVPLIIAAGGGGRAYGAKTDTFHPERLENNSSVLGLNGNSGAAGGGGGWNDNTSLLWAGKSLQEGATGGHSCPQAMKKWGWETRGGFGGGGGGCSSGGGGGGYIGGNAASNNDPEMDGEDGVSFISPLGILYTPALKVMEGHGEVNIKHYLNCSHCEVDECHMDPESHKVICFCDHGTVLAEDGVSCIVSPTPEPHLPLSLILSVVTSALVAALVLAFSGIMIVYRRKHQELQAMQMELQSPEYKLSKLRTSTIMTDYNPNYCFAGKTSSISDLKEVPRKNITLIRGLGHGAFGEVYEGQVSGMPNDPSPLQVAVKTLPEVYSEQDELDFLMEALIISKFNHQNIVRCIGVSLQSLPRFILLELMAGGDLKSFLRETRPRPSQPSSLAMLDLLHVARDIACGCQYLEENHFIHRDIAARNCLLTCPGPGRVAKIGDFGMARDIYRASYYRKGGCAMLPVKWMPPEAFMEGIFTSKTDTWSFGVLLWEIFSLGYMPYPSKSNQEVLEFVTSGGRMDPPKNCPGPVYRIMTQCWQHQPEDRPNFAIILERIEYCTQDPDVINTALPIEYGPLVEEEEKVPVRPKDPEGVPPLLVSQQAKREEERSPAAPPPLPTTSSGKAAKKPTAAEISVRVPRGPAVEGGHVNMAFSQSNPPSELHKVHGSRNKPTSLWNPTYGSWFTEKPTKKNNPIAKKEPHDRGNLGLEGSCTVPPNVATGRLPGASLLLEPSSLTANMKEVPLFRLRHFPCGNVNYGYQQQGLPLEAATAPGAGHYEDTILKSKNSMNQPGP

Chain of off-target kinases (Homo sapiens, UniProt O60674, V617F) (O60674 whole entry V617F): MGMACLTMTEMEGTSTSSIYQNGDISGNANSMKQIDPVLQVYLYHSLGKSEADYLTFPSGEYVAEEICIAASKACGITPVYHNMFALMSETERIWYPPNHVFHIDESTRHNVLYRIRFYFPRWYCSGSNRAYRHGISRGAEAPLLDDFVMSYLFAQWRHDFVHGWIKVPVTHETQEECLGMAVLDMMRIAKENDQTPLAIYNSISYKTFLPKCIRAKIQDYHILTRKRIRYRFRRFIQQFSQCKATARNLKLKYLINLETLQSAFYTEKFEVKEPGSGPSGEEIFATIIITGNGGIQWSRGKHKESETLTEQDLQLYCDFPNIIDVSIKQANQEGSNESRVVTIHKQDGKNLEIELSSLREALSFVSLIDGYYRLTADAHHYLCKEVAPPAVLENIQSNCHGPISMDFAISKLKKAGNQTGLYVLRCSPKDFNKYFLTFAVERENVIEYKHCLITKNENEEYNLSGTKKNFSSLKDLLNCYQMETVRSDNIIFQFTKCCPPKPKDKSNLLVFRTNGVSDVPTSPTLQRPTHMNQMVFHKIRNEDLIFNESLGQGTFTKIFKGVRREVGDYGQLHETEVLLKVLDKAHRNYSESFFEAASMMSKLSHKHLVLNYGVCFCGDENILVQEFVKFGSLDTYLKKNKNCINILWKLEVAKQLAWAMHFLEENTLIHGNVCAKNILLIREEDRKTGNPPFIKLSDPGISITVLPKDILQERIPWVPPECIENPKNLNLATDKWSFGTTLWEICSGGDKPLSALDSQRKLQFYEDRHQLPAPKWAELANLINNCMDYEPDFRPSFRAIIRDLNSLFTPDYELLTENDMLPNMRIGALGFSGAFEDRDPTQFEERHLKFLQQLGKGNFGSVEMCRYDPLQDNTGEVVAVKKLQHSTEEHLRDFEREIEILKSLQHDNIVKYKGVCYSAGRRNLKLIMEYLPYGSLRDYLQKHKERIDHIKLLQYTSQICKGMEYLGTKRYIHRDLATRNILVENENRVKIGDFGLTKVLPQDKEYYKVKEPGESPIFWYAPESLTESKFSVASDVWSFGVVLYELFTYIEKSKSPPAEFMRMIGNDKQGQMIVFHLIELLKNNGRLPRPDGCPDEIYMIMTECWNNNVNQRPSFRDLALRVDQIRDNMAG
Chain of off-target kinases (Homo sapiens, UniProt Q5VT25) (Q5VT25 whole entry): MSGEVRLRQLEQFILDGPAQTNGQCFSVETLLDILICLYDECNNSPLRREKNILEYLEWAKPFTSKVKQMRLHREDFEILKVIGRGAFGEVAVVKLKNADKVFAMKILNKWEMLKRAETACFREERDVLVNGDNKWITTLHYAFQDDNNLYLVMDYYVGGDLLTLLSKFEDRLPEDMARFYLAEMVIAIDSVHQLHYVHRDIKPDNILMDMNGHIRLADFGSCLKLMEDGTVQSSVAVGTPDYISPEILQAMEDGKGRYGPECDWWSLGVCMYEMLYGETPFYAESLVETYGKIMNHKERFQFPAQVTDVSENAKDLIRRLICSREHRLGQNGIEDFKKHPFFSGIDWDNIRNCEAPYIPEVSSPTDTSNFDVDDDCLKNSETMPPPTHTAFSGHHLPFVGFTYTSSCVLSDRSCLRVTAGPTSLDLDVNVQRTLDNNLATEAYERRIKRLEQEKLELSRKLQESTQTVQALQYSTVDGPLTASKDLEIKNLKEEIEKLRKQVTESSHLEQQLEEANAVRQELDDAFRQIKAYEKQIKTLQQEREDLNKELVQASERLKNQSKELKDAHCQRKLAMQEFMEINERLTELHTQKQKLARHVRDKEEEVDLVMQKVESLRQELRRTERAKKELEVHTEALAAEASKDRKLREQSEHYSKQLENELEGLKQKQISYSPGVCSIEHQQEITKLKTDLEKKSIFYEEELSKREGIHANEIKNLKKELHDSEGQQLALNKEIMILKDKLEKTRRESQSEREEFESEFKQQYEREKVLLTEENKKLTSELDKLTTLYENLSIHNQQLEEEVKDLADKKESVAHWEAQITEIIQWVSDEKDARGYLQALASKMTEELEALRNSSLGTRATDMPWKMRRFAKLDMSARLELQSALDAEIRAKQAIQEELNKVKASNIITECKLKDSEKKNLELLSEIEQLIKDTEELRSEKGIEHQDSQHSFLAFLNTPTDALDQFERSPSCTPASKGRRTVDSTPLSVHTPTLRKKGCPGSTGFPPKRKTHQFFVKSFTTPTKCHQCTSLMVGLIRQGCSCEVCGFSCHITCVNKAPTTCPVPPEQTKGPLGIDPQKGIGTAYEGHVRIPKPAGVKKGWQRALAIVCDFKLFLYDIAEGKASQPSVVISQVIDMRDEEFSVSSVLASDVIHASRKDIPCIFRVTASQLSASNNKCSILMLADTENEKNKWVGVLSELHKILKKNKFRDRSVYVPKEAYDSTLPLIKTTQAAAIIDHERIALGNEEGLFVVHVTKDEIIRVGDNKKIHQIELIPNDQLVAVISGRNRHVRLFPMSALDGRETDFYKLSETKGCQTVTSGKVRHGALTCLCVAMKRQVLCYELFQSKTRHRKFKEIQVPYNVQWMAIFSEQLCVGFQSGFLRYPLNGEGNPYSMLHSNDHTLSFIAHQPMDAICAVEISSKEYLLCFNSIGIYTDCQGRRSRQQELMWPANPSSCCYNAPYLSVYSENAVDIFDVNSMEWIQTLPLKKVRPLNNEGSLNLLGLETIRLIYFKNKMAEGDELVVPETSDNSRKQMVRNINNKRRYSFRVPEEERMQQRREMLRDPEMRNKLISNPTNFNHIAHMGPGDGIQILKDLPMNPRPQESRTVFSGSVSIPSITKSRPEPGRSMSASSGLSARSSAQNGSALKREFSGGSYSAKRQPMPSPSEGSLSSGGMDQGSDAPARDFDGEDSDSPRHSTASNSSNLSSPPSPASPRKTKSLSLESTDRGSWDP
Chain of off-target kinases (Homo sapiens, UniProt P19784) (P19784 whole entry): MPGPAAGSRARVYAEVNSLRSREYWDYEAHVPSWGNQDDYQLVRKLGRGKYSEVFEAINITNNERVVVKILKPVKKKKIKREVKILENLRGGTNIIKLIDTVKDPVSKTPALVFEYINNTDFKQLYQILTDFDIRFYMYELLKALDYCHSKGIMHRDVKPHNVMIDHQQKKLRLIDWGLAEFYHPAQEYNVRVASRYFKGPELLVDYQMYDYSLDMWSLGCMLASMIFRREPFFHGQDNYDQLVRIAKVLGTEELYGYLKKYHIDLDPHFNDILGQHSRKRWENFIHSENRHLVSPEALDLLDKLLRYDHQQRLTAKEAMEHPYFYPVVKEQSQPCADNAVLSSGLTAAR

## N#Cc1cc(-c2ncnc(Nc3ccc(N4CCN(C5COC5)CC4)cc3)n2)ccc1OC1CCOCC1 [Compound 1, 5-(4-((4-(4-(oxetan-3-yl)piperazin-1-yl)phenyl)amino)-1,3,5-triazin-2-yl)-2-((tetrahydro-2H-pyran-4-yl)oxy)benzonitrile]
[1]; read-out: % Inhibition 1
  inhibition: 43%
[1]; read-out: % Inhibition 2
  inhibition: 43%
[1]; read-out: % Inhibition Avg
  inhibition: 43%
[2]; read-out: % Inhibition 1
  inhibition: 54%
[2]; read-out: % Inhibition 2
  inhibition: 50%
[2]; read-out: % Inhibition Avg
  inhibition: 52%
[3]; read-out: % Inhibition 1
  inhibition: 32%
[3]; read-out: % Inhibition 2
  inhibition: 30%
[3]; read-out: % Inhibition Avg
  inhibition: 31%
[4]; read-out: % Inhibition 1
  inhibition: 5%
[4]; read-out: % Inhibition 2
  inhibition: 6%
[4]; read-out: % Inhibition Avg
  inhibition: 5%
[5]; read-out: % Inhibition 1
  inhibition: 84%
[5]; read-out: % Inhibition 2
  inhibition: 81%
[5]; read-out: % Inhibition Avg
  inhibition: 83%
[6]; read-out: % Inhibition 1
  inhibition: 4%
[6]; read-out: % Inhibition 2
  inhibition: 4%
[6]; read-out: % Inhibition Avg
  inhibition: 4%
[7]; read-out: % Inhibition 1
  inhibition: 4%
[7]; read-out: % Inhibition 2
  inhibition: 1%
[7]; read-out: % Inhibition Avg
  inhibition: 3%
[8]; read-out: % Inhibition 1
  inhibition: 7%
[8]; read-out: % Inhibition 2
  inhibition: 12%
[8]; read-out: % Inhibition Avg
  inhibition: 9%
